Measured values: patent US20230210877A1, “A Composition for Management of COVID-19 and Associated Disorders” (priority 2020, published 2023)

Test system: isoproterenol induced myocardial infarction
Test: isoproterenol induced myocardial infarction rat model
Format: in vivo
Design: TNF-A: unit not given here
Settings: rats, isoproterenol 90 mg/kg bwt. + treatment 138 mg/kg bwt. (total)

Row | SMILES | GOT | GPT | LDH | TNF-A
1 | O=c1c(O)c(-c2ccc(O)c(O)c2)oc2cc(O)cc(O)c12 [Quercetin] | 103.33 | 90.47 | 121.00 | 411.70
2 | O=C(O[C@@H]1Cc2c(O)cc(O)cc2O[C@@H]1c1cc(O)c(O)c(O)c1)c1cc(O)c(O)c(O)c1 [EGCG, Epigallocatechin gallate] | 139.15 | 75.30 |  | 408.29
3 | O=C(O)[C@H]1O[C@@H](Oc2cc3oc(-c4ccccc4)cc(=O)c3c(O)c2O)[C@H](O)[C@@H](O)[C@@H]1O [Biacalin, Baicalin] | 110.37 | 79.57 | 138.67 | 438.58
